Laboratory results published in ChEMBL document CHEMBL1201862, “PubChem BioAssay data set” (2004).
Activity calls are given as the source filed them.

Experiments:
[1] = biological target: T1, Short transient receptor potential channel 4 (Mus musculus, UniProt Q9QUQ5); assay: calcium entry via TRPC4 opening agents – cell-based, HEK293 TRPC4/mu-opioid, Fluo-4 calcium, dose response (AID 434937); format: functional
T1 sequence (Q9QUQ5 whole entry): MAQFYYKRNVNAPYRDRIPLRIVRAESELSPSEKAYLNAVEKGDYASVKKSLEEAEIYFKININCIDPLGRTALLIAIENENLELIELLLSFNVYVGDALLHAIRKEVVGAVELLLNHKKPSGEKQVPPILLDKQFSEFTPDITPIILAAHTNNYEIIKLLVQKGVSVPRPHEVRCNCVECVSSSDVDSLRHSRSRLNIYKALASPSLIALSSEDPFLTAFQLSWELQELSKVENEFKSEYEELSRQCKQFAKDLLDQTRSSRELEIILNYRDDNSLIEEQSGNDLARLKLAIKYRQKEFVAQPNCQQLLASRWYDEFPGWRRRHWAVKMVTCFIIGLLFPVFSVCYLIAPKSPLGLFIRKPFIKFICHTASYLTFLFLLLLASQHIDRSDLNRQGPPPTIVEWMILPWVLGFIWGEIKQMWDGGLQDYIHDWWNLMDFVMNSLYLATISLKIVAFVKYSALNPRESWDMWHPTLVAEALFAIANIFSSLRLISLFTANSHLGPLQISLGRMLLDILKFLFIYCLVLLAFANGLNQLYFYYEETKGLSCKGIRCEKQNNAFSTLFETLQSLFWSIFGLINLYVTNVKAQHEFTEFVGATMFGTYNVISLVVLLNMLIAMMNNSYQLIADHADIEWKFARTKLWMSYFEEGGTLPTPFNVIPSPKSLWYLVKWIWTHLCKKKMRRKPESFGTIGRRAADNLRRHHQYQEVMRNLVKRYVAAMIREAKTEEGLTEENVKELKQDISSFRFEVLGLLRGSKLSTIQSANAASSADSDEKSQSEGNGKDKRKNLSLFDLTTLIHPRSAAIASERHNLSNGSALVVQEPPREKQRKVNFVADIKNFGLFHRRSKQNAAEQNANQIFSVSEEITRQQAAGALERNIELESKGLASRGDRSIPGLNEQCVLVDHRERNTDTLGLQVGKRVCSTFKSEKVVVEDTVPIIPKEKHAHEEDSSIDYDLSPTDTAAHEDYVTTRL

[2] = biological target: Delta-type opioid receptor (Homo sapiens, UniProt P41143); assay: Counterscreen for agonists of heterodimerization of the mu 1 (OPRM1) and delta 1 (OPRD1) opioid receptors: Luminescence-based cell-based high throughput dose response assay to identify agonists of OPRD1 homodimerization. [Related pubchem assays (depositor defined):AID504326, AID504355, AID504692, AID504904, AID504905]; format: functional
Delta-type opioid receptor, sequence (P41143 whole entry): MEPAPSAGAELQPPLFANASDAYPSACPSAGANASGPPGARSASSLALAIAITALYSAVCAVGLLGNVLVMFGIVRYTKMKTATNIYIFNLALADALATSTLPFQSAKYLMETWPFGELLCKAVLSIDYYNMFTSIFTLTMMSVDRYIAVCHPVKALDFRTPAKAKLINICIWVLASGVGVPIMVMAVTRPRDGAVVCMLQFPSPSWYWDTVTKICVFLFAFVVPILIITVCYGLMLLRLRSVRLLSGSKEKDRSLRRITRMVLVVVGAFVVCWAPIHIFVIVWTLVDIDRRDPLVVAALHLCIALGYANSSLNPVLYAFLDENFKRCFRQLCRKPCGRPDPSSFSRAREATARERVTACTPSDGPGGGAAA

[3] = biological target: Mu-type opioid receptor (Homo sapiens, UniProt P35372); assay: Counterscreen for agonists of heterodimerization of the mu 1 (OPRM1) and delta 1 (OPRD1) opioid receptors: Luminescence-based cell-based high throughput dose response assay to identify agonists of OPRM1 homodimerization.; format: functional;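 further: U2OS cells expressing OPRM1 and beta-arrestin as split beta-galactosidase partners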
Mu-type opioid receptor, sequence (P35372 whole entry): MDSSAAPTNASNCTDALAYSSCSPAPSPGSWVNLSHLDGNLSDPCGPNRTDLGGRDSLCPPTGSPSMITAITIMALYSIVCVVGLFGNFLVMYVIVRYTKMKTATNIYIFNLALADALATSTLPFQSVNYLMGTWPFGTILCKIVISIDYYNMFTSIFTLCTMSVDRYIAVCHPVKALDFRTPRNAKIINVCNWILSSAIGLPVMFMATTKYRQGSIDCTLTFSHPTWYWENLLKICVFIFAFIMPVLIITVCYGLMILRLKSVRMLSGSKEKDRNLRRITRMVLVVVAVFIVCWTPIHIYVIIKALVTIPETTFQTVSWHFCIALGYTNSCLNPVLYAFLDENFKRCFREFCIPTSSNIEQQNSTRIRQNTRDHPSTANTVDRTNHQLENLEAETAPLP

[4] = biological target: 5-hydroxytryptamine receptor 5A (Homo sapiens, UniProt P47898); assay: Counterscreen for agonists of OPRM1-OPRD1 heterodimerization: luminescence-based cell-based high throughput dose response assay to identify agonists of 5-hydroxytryptamine (serotonin) 5A receptor (HTR5A). [Related pubchem assays (depositor defined):AID504326, AID504355, AID504692, AID504904, AID504905]; format: functional
5-hydroxytryptamine receptor 5A, sequence (P47898 whole entry): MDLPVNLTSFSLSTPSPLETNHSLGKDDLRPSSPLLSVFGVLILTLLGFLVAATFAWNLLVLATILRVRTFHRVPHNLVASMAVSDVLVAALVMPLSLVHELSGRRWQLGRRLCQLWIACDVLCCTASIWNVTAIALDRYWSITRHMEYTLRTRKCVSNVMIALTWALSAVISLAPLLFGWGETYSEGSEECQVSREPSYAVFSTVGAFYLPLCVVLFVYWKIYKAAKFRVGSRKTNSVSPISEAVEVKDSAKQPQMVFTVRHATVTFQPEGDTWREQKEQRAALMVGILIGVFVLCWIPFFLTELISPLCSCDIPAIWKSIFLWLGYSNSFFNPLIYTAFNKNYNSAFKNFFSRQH

[5] = system: HEK293; assay: inhibition of NOD1-driven NF-kB reporter – cell-based, luminescence, uHTS, primary screen (AID 1578); format: functional; conditions: Homo sapiens
[6] = system: HEK293; assay: cells; format: functional, cell-based; conditions: Homo sapiens
[7] = system: HEK293; assay: cells; format: functional, cell-based; conditions: Homo sapiens; remark: listed apart in the source
[8] = system: HEK293; assay: NOD2 signaling inhibitors in MDP-stimulated cells, cell-based, uHTS, luminescence (AID 2001); format: functional; conditions: Homo sapiens
[9] = biological target: Nonstructural protein 1 (Influenza A virus, UniProt Q194T2); format: functional, Influenza A virus (A/California/07/2009(H1N1))
Nonstructural protein 1, sequence (Q194T2 whole entry): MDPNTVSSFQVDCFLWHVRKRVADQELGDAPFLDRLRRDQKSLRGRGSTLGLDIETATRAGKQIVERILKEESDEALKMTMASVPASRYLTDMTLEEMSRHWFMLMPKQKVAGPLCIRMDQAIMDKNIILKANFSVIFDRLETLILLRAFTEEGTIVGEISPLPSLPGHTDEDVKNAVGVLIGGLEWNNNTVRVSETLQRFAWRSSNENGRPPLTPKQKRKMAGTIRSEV

[10] = biological target: Trypsin (Sus scrofa, UniProt P00761); assay: trypsin protease activity blockade – biochemical, quenched peptide fluorescence, cherry-pick, selectivity assay for Rce1 protease inhibitor project, dose response (AID 488789)
Trypsin, sequence (P00761 whole entry): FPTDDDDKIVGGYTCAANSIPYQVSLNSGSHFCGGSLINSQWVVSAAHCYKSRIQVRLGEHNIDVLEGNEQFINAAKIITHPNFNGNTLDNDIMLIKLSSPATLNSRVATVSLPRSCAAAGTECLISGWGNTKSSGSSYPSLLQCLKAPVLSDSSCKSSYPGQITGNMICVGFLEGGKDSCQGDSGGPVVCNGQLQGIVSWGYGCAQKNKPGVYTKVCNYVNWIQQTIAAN

[11] = biological target: T2, CAAX prenyl protease 2 (Saccharomyces cerevisiae S288c, UniProt Q03530); format: biochemical
T2 sequence (Q03530 whole entry): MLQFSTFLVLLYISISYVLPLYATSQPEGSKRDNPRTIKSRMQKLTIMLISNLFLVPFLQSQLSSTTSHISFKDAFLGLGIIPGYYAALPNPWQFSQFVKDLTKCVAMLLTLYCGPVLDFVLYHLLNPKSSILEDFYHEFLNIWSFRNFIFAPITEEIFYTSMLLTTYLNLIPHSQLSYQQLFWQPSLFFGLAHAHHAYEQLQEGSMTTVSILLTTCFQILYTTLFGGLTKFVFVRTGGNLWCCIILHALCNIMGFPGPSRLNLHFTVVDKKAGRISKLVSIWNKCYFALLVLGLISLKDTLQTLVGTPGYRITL

[12] = biological target: CAAX prenyl protease 1 (Saccharomyces cerevisiae S288c, UniProt P47154); assay: yeast CAAX protease Ste24 inhibition – biochemical, S. cerevisiae, plate reader, cherry-pick, dose response (AID 488815)
CAAX prenyl protease 1, sequence (P47154 whole entry): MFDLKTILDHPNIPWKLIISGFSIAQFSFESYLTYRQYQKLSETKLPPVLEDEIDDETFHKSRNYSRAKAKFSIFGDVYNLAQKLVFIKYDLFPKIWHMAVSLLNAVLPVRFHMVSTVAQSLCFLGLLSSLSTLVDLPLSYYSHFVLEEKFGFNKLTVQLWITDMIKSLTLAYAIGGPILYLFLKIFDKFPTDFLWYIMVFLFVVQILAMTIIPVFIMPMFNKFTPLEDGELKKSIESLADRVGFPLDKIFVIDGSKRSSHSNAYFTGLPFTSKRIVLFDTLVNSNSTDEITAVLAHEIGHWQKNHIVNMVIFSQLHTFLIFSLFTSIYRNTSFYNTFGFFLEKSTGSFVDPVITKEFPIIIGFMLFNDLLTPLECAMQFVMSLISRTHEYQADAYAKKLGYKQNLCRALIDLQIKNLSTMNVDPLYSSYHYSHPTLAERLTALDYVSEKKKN

[13] = biological target: CAAX prenyl protease 2 (Homo sapiens, UniProt Q9Y256); assay: inhibition of Ras-converting CAAX protease Rce1 – biochemical, yeast membranes, quenched-peptide fluorescence, cherry-pick, dose response (AID 588849)
CAAX prenyl protease 2 (Homo sapiens, UniProt Q9Y256), sequence (Q9Y256 whole entry): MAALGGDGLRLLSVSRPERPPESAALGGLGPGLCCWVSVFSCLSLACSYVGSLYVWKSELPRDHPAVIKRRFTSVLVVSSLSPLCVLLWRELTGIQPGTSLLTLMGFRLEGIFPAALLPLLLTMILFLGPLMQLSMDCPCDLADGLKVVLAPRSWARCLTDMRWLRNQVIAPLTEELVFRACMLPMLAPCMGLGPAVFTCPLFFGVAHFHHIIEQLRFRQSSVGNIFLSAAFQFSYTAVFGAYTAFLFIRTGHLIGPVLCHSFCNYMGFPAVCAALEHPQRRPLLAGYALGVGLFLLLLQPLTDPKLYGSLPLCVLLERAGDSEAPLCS

Question: `Cc1cccc(NC(S)=NCC(c2cccnc2)N(C)C)c1C` (stereo unspecified) was tested. Which EC50 [1] did it give?
Answer: 0.0067 µM (active)

Question: And the EC50 [2]?
Answer: 17.8 µM (inactive)

Question: And the EC50 [3]?
Answer: 2.75 µM (active)

Question: And the EC50 [4]?
Answer: > 92.5 µM (inactive)

Question: `CN1C=C/C(=C/c2ccc3ccccc3[n+]2C)c2ccccc21` was tested. Which EC50 [5] did it give?
Answer: 5.15 µM (active)

Question: What about the IC50 [6] of the same molecule?
Answer: 8.56 µM (active)

Question: And the IC50 [7]?
Answer: 18 µM (active)

Question: And the IC50 [8]?
Answer: 7.8 µM (active)

Question: What about the IC50 [9] of the same molecule?
Answer: 16.4 µM (active)

Question: How did the EC50 [2] turn out when `COC(=O)C(Cc1cccc(C)n1)(c1ccccc1)c1ccccc1` was run?
Answer: > 92.5 µM (inactive)

Question: What about the EC50 [3] of the same molecule?
Answer: > 92.5 µM (inactive)

Question: What about the EC50 [4] of the same molecule?
Answer: > 92.5 µM (inactive)

Question: For `COC(=O)c1sc2cnccc2c1N`, which AC50 [10] is on record?
Answer: 9.63 µM (active)

Question: And the AC50 [11]?
Answer: 14 µM (active)

Question: What about the AC50 [12] of the same molecule?
Answer: 4.39 µM (active)

Question: What about the AC50 [13] of the same molecule?
Answer: 2.57 µM (active)
